{"source": "patent US20230050588A1", "about": "“ANTIOXIDANT OR SKIN STRESS INHIBITOR” (Shiseido Company, Ltd., priority 2020, published 2023)", "format_in_all_cases": "cell-based", "design_in_all_cases": "key: ○ corresponds to genes whose expression is significantly changed; x corresponds to genes whose expression is not changed", "key": {"HMOX1": {"system": "HMOX1", "assay": "Microarray gene expression in keratinocytes UV-irradiated through wavelength conversion substance: HMOX1", "conditions": "Normal Human Epidermal Keratinocytes; UV 100 mJ/cm^2 through substance solution without direct contact; 24 hours after irradiation", "procedure": "(§1) The wavelength conversion substances of (1) and (2) were dissolved in water to prepare solutions at concentrations of 1% and 5%.\n(§2) The wavelength conversion substances of (3) and (4) were dispersed in alcohol to prepare 5% and 10% dispersions.\n(§3) 1. Normal Human Epidermal Keratinocytes (PromoCell) were used. A cell suspension (1 mL) stored with liquid nitrogen was placed in a hot water bath (37° C.) and thawed until small ice pellets remained, and then diluted with 9 mL of warm KGM medium. 2. The diluted suspension was gently mixed and transferred to a T75 flask, and incubated overnight at 37° C. 3. On the following day, the medium was exchanged with 10 mL of fresh medium. 4. The medium was periodically exchanged (once every 2 to 3 days), while continuing growth of the cells. During this time, a microscope was used to observe the cells and to confirm that the cells had proliferated with the proper form. 5. Once the cells reached approximately 80% confluence, they were subcultured. 6. Subculturing of the cells was carried out by rinsing and aspirating once in 10 mL of warm PBS. 7. 5 mL of warm trypsin was added to the T75 flask to cover the bottom of the flask with the trypsin solution, and the mixture was aspirated after standing for 1 minute at room temperature. 8. The flask was set in an oven at 37° C. for 5 minutes (maximum) for keratinocytes. […]"}, "AHRR": {"system": "AHRR", "assay": "Microarray gene expression in keratinocytes UV-irradiated through wavelength conversion substance: AHRR", "conditions": "Normal Human Epidermal Keratinocytes; UV 100 mJ/cm^2 through substance solution without direct contact; 24 hours after irradiation", "procedure": "as §1, §2, §3"}, "AhR": {"system": "AhR", "assay": "Microarray gene expression in keratinocytes UV-irradiated through wavelength conversion substance: AhR", "conditions": "Normal Human Epidermal Keratinocytes; UV 100 mJ/cm^2 through substance solution without direct contact; 24 hours after irradiation; expression of AhR is reduced", "procedure": "as §1, §2, §3"}}}
{"smiles": "Cc1cc2nc3c(=O)[nH]c(=O)nc-3n(C[C@H](O)[C@H](O)[C@H](O)CO)c2cc1C", "note": "[Vitamin B2, Riboflavin]", "values": [{"measurement": "HMOX1 gene expression change (microarray)", "setting": "HMOX1", "value": "x"}, {"measurement": "AHRR gene expression change (microarray)", "setting": "AHRR", "value": "○"}, {"measurement": "AhR gene expression change (microarray)", "setting": "AhR", "value": "○"}]}
